Reference: ChEMBL document CHEMBL1126998, “-lactam derivatives from 1-H-1,2-diazepines” (Bioorg Med Chem Lett, 1993)
pIC50: −log10 of the molar value. “And” between values parts separate entries of the source, which are not always exact repeats. Equal entries are not always repeated.

Experiments:
[1] = test system: JM1; assay: Tested for antiviral uM; Activity expressed as % inhibition of syncytium; format: functional, Homo sapiens
[2] = test system: JM1; assay: (§1) Tested for antiviral activity of compound against HIV (Strain GB 8) in JM cells; format: functional, Homo sapiens
[3] = test system: JM1; assay: as §1; format: functional, cell-based; conditions: Homo sapiens
[4] = test system: JM1; assay: Tested for the cytotoxicity against JM cells at 100 uM in an MTT assay; format: functional, Homo sapiens
[5] = test system: JM1; assay: as §1; format: functional, cell-based; conditions: Homo sapiens; remark: listed apart in the source

Compound	Inhibition [1]	IC90 [2]	IC90 ([2]; Homo sapiens, JM1)	pIC50 [3]	Cytotoxicity [4]	pIC50 [5]
COC(=O)NN1C(=O)[C@H](C)[C@H]1[C@@H]1NC[C@@H](O)[C@H]1O.Cl	20% and 27%					
O[C@H]1[C@H](O)[C@@H](O)CN2CC[C@H](O)[C@H]12 [CASTANOSPERMINE]		24.5 µM	28.2 µM	5.14	0% and 4%	5.06
